For experiment [1], the system named is Brevibacterium epidermidis. Put plainly: agar dilution method, MIC. The format is cell-based. As to conditions: ATCC35514; Brevibacterium epidermidis ATCC 35514; Mueller-Hinton agar, aerobic, 18 h at 36° C.; read-out: MIC (minimum inhibitory concentration). The procedure: (§1) Petri dishes 5.5 cm in diameter were charged with 8.7 ml freshly prepared Mueller-Hinton agar (Merck, Ref. 1.05437 or Wilkins-Chalgren agar boillon (sic), Oxoid, Ref. CM 643, supplemented with 10 g agar-agar/liter) kept liquid at 50° C., to which the various concentrations of the diluted samples were added in 3.3% (V/V)=0.3 ml. Mueller-Hinton agar that contained 3% Tween80 (Merck, Ref. 8.22 187) was used for the test germ Malassezia furfur.
(§2) 2.6 ml of the 3.3% samples were diluted with ethanol (96%; Merck, Ref. 1.00971). The further test concentrations of the particular dilution series, which were prepared in the form of geometric series, were prepared by progressive 2:1 dilution with ethanol (96%).
(§3) The concentrations indicated below relate to the pure substance and have been converted to ppm. Two agar plates were poured per test concentration and nutrient medium.
(§4) After solidification and drying (approximately 1 h at 37° C.), the test plates were inoculated in point form with, in each case, 1 μl of the test germ suspensions listed in the examples below. To check purity and identity, the bacteria (Brevibacterium epidermidis, Corynebakterium (sic) xerosis, Staphylococcus aureus; Staphylococcus epidermidis) which grow aerobically, were [lacuna] on Columbia blood agar (BioMérieux, Ref. 43049). The mould Aspergillus niger, the yeast Candida albicans and the skin fungus Trichophyton mentagrophytes were cultivated on Sabouraud agar (BioMérieux, Ref. 43555). Malassezia furfur was cultured on Sabourad-HLT agar with inhibitors (addition of Tween80: 1%; lecithin: 0.3%; histidine: 0.1%; Merck, Ref. 1.18368). Propionibacterium acnes was cultivated on Schaedler agar (BioMérieux, Ref. 43273). Further data on the test germs can be taken from Table 1.
(§5) The preparation of the test germ suspensions of the bacterial germs that grow aerobically was carried out by incubation of Mueller-Hinton broth (Merck, Ref. 1.10293) which had been inoculated with a few individual colonies of the relevant test germs, at 36° C. After a distinct turbidity had been obtained, sterile nutrient broth was added to the suspensions in such an amount that the turbidity thereof corresponded to McFarland Standard 0.5 (approx. 1.5×10^8 CFU/ml).
(§6) All test germ suspensions with the exception of Propionibacterium acnes were diluted again 1:10 with sterile broth and the germ count thereof was determined by the surface method using a Spiralometer (results: see Table 1).
(§7) The MIC (minimum inhibitory concentration) was regarded as the lowest concentration of active compound at which macroscopically there is no growth. Minimal, barely visible growth or few small individual colonies were evaluated as inhibition.
(§8) The MIC values of various (R/S)-4-methyl-4-aryl-2-pentanols were determined in accordance with the general test conditions described under 2.1. (c.f. Table 3; MIC values for (R/S[lacuna]-4-methyl-4-phenyl-2-pentanol, for (R/S)-4-methyl-4-p-tolyl-2-pentanol, (R/S)-4-methyl-4-p-cumenyl-2-pentanol and (R/S)-4-methyl-4-(4-n-butylphenyl)-2-pentanol).

A further experiment relates to Corynebacterium xerosis. As to the kind of experiment: agar dilution method, MIC. The format is cell-based. As to conditions: ATCC7711; Corynebacterium xerosis ATCC 7711; Mueller-Hinton agar, aerobic, 18 h at 36° C.; read-out: MIC (minimum inhibitory concentration). The procedure:
as §1, §2, §3, §4, §5, §6, §7, §8

For experiment [2], the system named is Staphylococcus epidermidis. Put plainly: agar dilution method, MIC. As to conditions: ATCC12228; Staphylococcus epidermidis ATCC 12228; Mueller-Hinton agar, aerobic, 18 h at 36° C.; read-out: MIC (minimum inhibitory concentration). The format is cell-based. The procedure:
as §1, §2, §3, §4, §5, §6, §7, §8
On the technique in general: Agar dilution tests growth on a series of plates holding different concentrations.

A further experiment deals with Propionibacterium acnes. Put plainly: agar dilution method, MIC. The format is cell-based. Particulars: for MIC: Cutibacterium acnes, ATCC11829, Propionibacterium acnes ATCC 11829, Wilkins-Chalgren agar, anaerobic, 72 h at 36° C., read-out: MIC (minimum inhibitory concentration); for activity against Propionibacterium acnes (in words): text comment on Table 3. The procedure:
as §1, §2, §3, §4
(§9) For preparation of the other test germ suspensions, the test strains were cultured on the abovementioned solid nutrient medium, harvested using sterile swabs and taken up or diluted in such an amount of Mueller-Hinton broth that the turbidity of the suspensions corresponded to McFarland standard 0.5.
as §7, §8

Another experiment relates to Aspergillus niger. As to the kind of experiment: agar dilution method, MIC. The format is cell-based. Particulars: for MIC: ATCC16404, Aspergillus niger ATCC 16404, Mueller-Hinton agar, aerobic, 48 h at 30° C., read-out: MIC (minimum inhibitory concentration); for effectiveness against moulds (in words): comparison among substances 2-5. The procedure:
as §1, §2, §3, §4, §9, §6, §7, §8

For the next experiment, the system named is Candida albicans. Put plainly: agar dilution method, MIC. It is filed as cell-based. Particulars: for MIC: ATCC10231, Candida albicans ATCC 10231, Mueller-Hinton agar, aerobic, 48 h at 30° C., read-out: MIC (minimum inhibitory concentration); for effectiveness against yeasts such as Candida albicans (in words): comparison among substances 2-5. The procedure:
as §1, §2, §3, §4, §9, §6, §7, §8

Another experiment concerns Malassezia furfur. As to the kind of experiment: agar dilution method, MIC. It is filed as cell-based. Particulars: DSM6171; Malassezia furfur DSM 6171; Mueller-Hinton agar + 3% Tween 80, aerobic, 72 h at 30° C.; read-out: MIC (minimum inhibitory concentration). The procedure: as §1, §2, §3, §4, §9, §6, §7, §8
Experiment [3] concerns Trichophyton mentagrophytes. As to the kind of experiment: agar dilution method, MIC. Particulars: CBS26379; Trichophyton mentagrophytes CBS 26379; Mueller-Hinton agar, aerobic, 72 h at 30° C.; read-out: MIC (minimum inhibitory concentration). It is filed as cell-based. The procedure: as §1, §2, §3, §4, §9, §6, §7, §8
For the next experiment, the system named is Escherichia coli. Put plainly: agar dilution method, MIC. It is filed as cell-based. Particulars: read-out: MIC (minimum inhibitory concentration). The procedure:
as §1, §2, §3, §7, §8

Another experiment has as its system Pseudomonas aeruginosa. Put plainly: agar dilution method, MIC. As to conditions: read-out: MIC (minimum inhibitory concentration). The format is cell-based. The procedure: as §1, §2, §3, §7, §8
Another experiment relates to glycolysis. Particulars: known from J. Dental Res. 40,384 (1961); cariostatic; cited from earlier work.

Bounds are passed on as bounds.

`CC(O)CC(C)(C)c1ccccc1` (racemic) [Formula 2, (R,S)-4-methyl-4-phenyl-2-pentanol]: the MIC in experiment [1] came to 1100 µg/mL; with Corynebacterium xerosis, 1100 µg/mL; in experiment [2], 1100 µg/mL; in the experiment on Propionibacterium acnes it was 1100 µg/mL; in the experiment on Aspergillus niger, 550 µg/mL; in the experiment with Candida albicans it was 1100 µg/mL. In addition, the MIC with Malassezia furfur is 69 µg/mL; in [3], 550 µg/mL; in the experiment with Escherichia coli, above 1100 µg/mL; in the experiment with Pseudomonas aeruginosa it was above 1100 µg/mL. For the same compound, the “activity against Propionibacterium acnes (in words)” value (shortened to “activity”) in the experiment with Propionibacterium acnes is “an activity can also be observed”. The “effectiveness against moulds (in words)” value in the experiment with Aspergillus niger was “most effective”. Besides, the “effectiveness against yeasts such as Candida albicans (in words)” value in the experiment on Candida albicans is on record as “most effective”. For the same compound, the “glycolysis-inhibiting action (in words)” value with glycolysis was “a certain glycolysis-inhibiting action”.
On to `Cc1ccc(C(C)(C)CC(C)O)cc1` (racemic) [Formula 3, (R,S)-4-methyl-4-p-tolyl-2-pentanol], for which the MIC was 550 µg/mL in experiment [1]; 275 µg/mL in the experiment on Corynebacterium xerosis; 550 µg/mL in experiment [2]; 550 µg/mL with Propionibacterium acnes; 550 µg/mL in the experiment with Aspergillus niger; 1100 µg/mL in the experiment on Candida albicans. The MIC with Malassezia furfur is 69 µg/mL; in [3], 138 µg/mL; in the experiment on Escherichia coli it was above 1100 µg/mL; in the experiment on Pseudomonas aeruginosa it was above 1100 µg/mL. In addition, the “activity” value with Propionibacterium acnes was “an activity can also be observed”. Further, the “effectiveness against moulds (in words)” value in the experiment on Aspergillus niger is reported as “most effective”. Further, in the experiment with Candida albicans, the “effectiveness against yeasts such as Candida albicans (in words)” value is reported as “most effective”.
For the compound `CC(O)CC(C)(C)c1ccc(C(C)C)cc1` (racemic) [Formula 4, (R,S)-4-methyl-4-p-cumenyl-2-pentanol], the MIC in experiment [1] was 138 µg/mL; in the experiment with Corynebacterium xerosis, 69 µg/mL; in experiment [2], 138 µg/mL; in the experiment with Propionibacterium acnes, 138 µg/mL; with Aspergillus niger, above 1100 µg/mL; in the experiment with Candida albicans it was above 1100 µg/mL. In addition, the MIC is 550 µg/mL with Malassezia furfur, 69 µg/mL in [3], above 1100 µg/mL with Escherichia coli and above 1100 µg/mL with Pseudomonas aeruginosa.
For `CCCCc1ccc(C(C)(C)CC(C)O)cc1` (racemic) [Formula 5, (R,S)-4-methyl-4-(4-n-butylphenyl)-2-pentanol], the MIC in [1] is 550 µg/mL; in the experiment with Corynebacterium xerosis, 69 µg/mL; in experiment [2], 1100 µg/mL; with Propionibacterium acnes, above 1100 µg/mL; with Aspergillus niger, above 1100 µg/mL; with Candida albicans, above 1100 µg/mL. In addition, the MIC in the experiment with Malassezia furfur was 550 µg/mL; in experiment [3], 69 µg/mL; in the experiment with Escherichia coli, above 1100 µg/mL; in the experiment with Pseudomonas aeruginosa, above 1100 µg/mL. Also, the “activity” value in the experiment with Propionibacterium acnes was “an activity can also be observed”.

The values are drawn from patent US7119123B2, “Antimicrobially active 4-methyl-4-aryl-2-pentanols, their preparation and use” (Symrise GmbH & Co. KG, priority 2004, dated 2006).
